In the NIST ThermoML archive (doi:10.1021/je049612f):

Conditions: Gas, Vibrating wire viscometry

FS(F)(F)(F)(F)F [sulfur hexafluoride]
Conditions	viscosity [mPa·s]
321 K, 1893.8 kPa	0.01729
321 K, 1930.7 kPa	0.01734
321 K, 2004.9 kPa	0.01743
321 K, 2041.9 kPa	0.01747
321 K, 2120.4 kPa	0.01758
321 K, 2221.3 kPa	0.01772
321 K, 2270.3 kPa	0.0178
321 K, 2332.7 kPa	0.0179
321 K, 2373.2 kPa	0.01797
321 K, 2451.3 kPa	0.01812
321 K, 2534.7 kPa	0.01826
321 K, 2581.9 kPa	0.01837
321 K, 2629.5 kPa	0.01846
321 K, 2688.1 kPa	0.0186
321 K, 2803.9 kPa	0.01888
321 K, 2873.5 kPa	0.01908
321 K, 2959.1 kPa	0.01932
321 K, 3050 kPa	0.01963
321 K, 3136.6 kPa	0.01995
321 K, 3229.6 kPa	0.02035
321 K, 3282 kPa	0.0206
321 K, 3384.4 kPa	0.02117
321 K, 3445.9 kPa	0.02156
321 K, 3498.8 kPa	0.02195
321 K, 3558.3 kPa	0.02244
321 K, 3606.1 kPa	0.02294
321 K, 3651.4 kPa	0.02346
321 K, 3695.6 kPa	0.02407
321 K, 3729.2 kPa	0.02462
321 K, 3765.4 kPa	0.0253
321 K, 3793.6 kPa	0.026
321 K, 3819.6 kPa	0.02674
321 K, 3858.5 kPa	0.02827
321 K, 3887.8 kPa	0.0299
321 K, 3899.4 kPa	0.03104
321 K, 3910.1 kPa	0.03218
321 K, 3918.4 kPa	0.03355
321 K, 3926.6 kPa	0.03481
321 K, 3933.3 kPa	0.03615
321 K, 3938.4 kPa	0.03743
321 K, 3945.7 kPa	0.03995
321 K, 3950.6 kPa	0.04131
321 K, 3955.4 kPa	0.04272
321 K, 3961 kPa	0.04435
321 K, 3968.8 kPa	0.04638
321 K, 3977 kPa	0.04813
321 K, 3988.3 kPa	0.05018
321 K, 4001.1 kPa	0.05214
321 K, 4020.8 kPa	0.05448
321 K, 4046.8 kPa	0.05683
321 K, 4077.1 kPa	0.05902
321 K, 4112.9 kPa	0.06125
321 K, 4160 kPa	0.0635
321 K, 4223.8 kPa	0.06599
321 K, 4349.4 kPa	0.07
321 K, 4465.5 kPa	0.07305
321 K, 4601.3 kPa	0.07606
321 K, 4740.5 kPa	0.07859
321 K, 4879.1 kPa	0.08093
321 K, 5134 kPa	0.08474
321 K, 5554.1 kPa	0.09001
321 K, 5938 kPa	0.09416
321 K, 6388.7 kPa	0.09845
321 K, 7256.2 kPa	0.1057
321 K, 7905.1 kPa	0.1105
321 K, 8647.5 kPa	0.1154
321 K, 9548.1 kPa	0.1212
321 K, 10352 kPa	0.1258
321 K, 11075 kPa	0.1297
333.15 K, 91.55 kPa	0.01681
333.15 K, 113.58 kPa	0.01682
333.15 K, 142.52 kPa	0.01682
333.15 K, 172.42 kPa	0.01683
333.15 K, 198.48 kPa	0.01684
333.15 K, 218.78 kPa	0.01685
333.15 K, 243.22 kPa	0.01685
333.15 K, 275.2 kPa	0.01686
333.15 K, 294.03 kPa	0.01686
333.15 K, 319.41 kPa	0.01687
333.15 K, 350.89 kPa	0.01688
333.15 K, 378.94 kPa	0.01689
333.15 K, 416.93 kPa	0.0169
333.15 K, 443.4 kPa	0.01691
333.15 K, 479.64 kPa	0.01692
333.15 K, 506.6 kPa	0.01693
333.15 K, 547.64 kPa	0.01694
333.15 K, 590.65 kPa	0.01695
333.15 K, 636.15 kPa	0.01697
333.15 K, 671.18 kPa	0.01698
333.15 K, 717.74 kPa	0.017
333.15 K, 772.31 kPa	0.01703
333.15 K, 837.79 kPa	0.01705
333.15 K, 887.92 kPa	0.01708
333.15 K, 946.43 kPa	0.0171
333.15 K, 1025.7 kPa	0.01715
333.15 K, 1092.5 kPa	0.01718
333.15 K, 1167.4 kPa	0.01723
333.15 K, 1233.2 kPa	0.01727
333.15 K, 1307.8 kPa	0.01732
333.15 K, 1366.9 kPa	0.01737
333.15 K, 1419.7 kPa	0.0174
333.15 K, 1502.8 kPa	0.01746
333.15 K, 1566.4 kPa	0.01751
333.15 K, 1629.7 kPa	0.01757
333.15 K, 1705.8 kPa	0.01763
333.15 K, 1772.9 kPa	0.01769
333.15 K, 1853.5 kPa	0.01778
333.15 K, 1917.4 kPa	0.01783
333.15 K, 1967 kPa	0.0179
333.15 K, 2025.7 kPa	0.01795
333.15 K, 2294.7 kPa	0.01828
333.15 K, 2427.7 kPa	0.01848
333.15 K, 2519.2 kPa	0.01862
333.15 K, 2631.9 kPa	0.0188
333.15 K, 2766.3 kPa	0.01904
333.15 K, 2872 kPa	0.01925
333.15 K, 3008.3 kPa	0.01955
333.15 K, 3089.4 kPa	0.01973
333.15 K, 3195.2 kPa	0.02001
333.15 K, 3306.1 kPa	0.02032
333.15 K, 3398.7 kPa	0.0206
333.15 K, 3504 kPa	0.02097
333.15 K, 3605.1 kPa	0.02135
333.15 K, 3722 kPa	0.02185
333.15 K, 3815.4 kPa	0.02229
333.15 K, 3932.1 kPa	0.02291
333.15 K, 4050.8 kPa	0.0237
333.15 K, 4148.2 kPa	0.02445
333.15 K, 4239.9 kPa	0.02524
333.15 K, 4328.2 kPa	0.02616
333.15 K, 4406.9 kPa	0.02715
333.15 K, 4479.7 kPa	0.02819
333.15 K, 4549.6 kPa	0.02938
333.15 K, 4612.3 kPa	0.03054
333.15 K, 4671.8 kPa	0.03186
333.15 K, 4725.8 kPa	0.03331
333.15 K, 4776.6 kPa	0.03476
333.15 K, 4828.1 kPa	0.03629
333.15 K, 4880.1 kPa	0.03801
333.15 K, 4933.2 kPa	0.03982
333.15 K, 4991.6 kPa	0.0419
333.15 K, 5049 kPa	0.04395
333.15 K, 5109.4 kPa	0.04603
333.15 K, 5178.8 kPa	0.04833
333.15 K, 5254.9 kPa	0.05072
333.15 K, 5343.6 kPa	0.05331
333.15 K, 5447.5 kPa	0.0561
333.15 K, 5567.4 kPa	0.05883
333.15 K, 5709.9 kPa	0.06196
333.15 K, 5869.5 kPa	0.06483
333.15 K, 6098.2 kPa	0.0687
333.15 K, 6338.2 kPa	0.07217
333.15 K, 6627.7 kPa	0.07584
333.15 K, 6950.6 kPa	0.07952
333.15 K, 7378.3 kPa	0.08395
333.15 K, 7900 kPa	0.08869
333.15 K, 8519.8 kPa	0.09355
333.15 K, 9106.8 kPa	0.09795
333.15 K, 9802 kPa	0.1027
333.15 K, 10465 kPa	0.1067
333.15 K, 11412 kPa	0.1122
333.15 K, 12565 kPa	0.1183
350 K, 64.67 kPa	0.01753
350 K, 96.54 kPa	0.01755
350 K, 117.61 kPa	0.01755
350 K, 143.77 kPa	0.01756
350 K, 170.68 kPa	0.01756
350 K, 204.56 kPa	0.01758
350 K, 238.01 kPa	0.01759
